Here are results for five molecules from publication PMC5571211 (Scientific Reports, 2017).

The target in one series is T1, human recombinant LTA4-H (Homo sapiens, UniProt P09960).
T1 construct: gift of Dr. E. Proschak, Goethe University, Frankfurt
T1 sequence (P09960 2-611 limits assumed): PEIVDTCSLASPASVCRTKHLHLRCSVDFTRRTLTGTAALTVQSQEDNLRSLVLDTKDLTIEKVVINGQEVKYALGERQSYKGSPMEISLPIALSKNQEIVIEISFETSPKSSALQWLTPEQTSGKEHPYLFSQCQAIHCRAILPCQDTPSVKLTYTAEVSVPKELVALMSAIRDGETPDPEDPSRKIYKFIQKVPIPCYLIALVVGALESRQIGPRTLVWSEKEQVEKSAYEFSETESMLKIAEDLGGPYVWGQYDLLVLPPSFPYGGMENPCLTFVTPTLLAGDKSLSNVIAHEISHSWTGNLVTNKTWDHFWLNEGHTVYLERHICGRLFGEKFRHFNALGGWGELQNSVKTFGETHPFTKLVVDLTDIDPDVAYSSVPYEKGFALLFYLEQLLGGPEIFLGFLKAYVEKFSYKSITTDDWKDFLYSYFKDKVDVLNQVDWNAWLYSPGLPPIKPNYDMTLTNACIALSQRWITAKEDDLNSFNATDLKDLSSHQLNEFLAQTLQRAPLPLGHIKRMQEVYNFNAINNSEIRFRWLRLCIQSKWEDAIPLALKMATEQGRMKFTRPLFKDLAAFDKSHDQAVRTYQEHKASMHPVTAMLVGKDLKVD
Nature of the series: LTA4 hydrolase activity, co-incubation of isolated 5-LOX and LTA4-H. Conditions: diflapolin up to 10 µM, AUDA 10 µM, SC57461A 0.3 µM, zileuton 3 µM. The class given is biochemical. On the procedure:
In order to determine the activity of LTA4-H, aliquots of human recombinant 5-LOX (0.5 µg) and 10 µg of human recombinant LTA4-H (kindly provided by Dr. E. Proschak, Goethe University, Frankfurt, Germany) were suspended in 1 mL PBS containing 1 mM EDTA and pre-incubated with test compounds or vehicle (0.1% DMSO) for 10 min on ice. The specific LTA4-H inhibitor SC57461A (0.3 µM) was used as reference drug. Subsequently, incubations were stimulated with 20 µM AA and 2 mM CaCl2 for additional 10 min at 37 °C. The reaction was stopped by 1 volume ice-cold methanol, 530 µL acidified PBS and 200 ng of PGB1 as internal standard were added and subjected to solid phase extraction. All LTB4 isomers were analyzed by HPLC as described above.

Series [1] deals with AA release (cPLA2) in neutrophils. The series is described as follows: [3H]-labeled arachidonic acid release in neutrophils. The conditions noted are these: [3H]AA-pre-labelled neutrophils; diflapolin 1 µM, RSC-3388 10 µM. In kind it is cell-based, human. On the procedure:
Freshly isolated human neutrophils were resuspended in RPMI 1640 medium to a final cell density of 10^7 cells/mL and incubated with 0.5 µCi/mL of [^3H]-labeled arachidonic acid ([^3H]-AA), corresponding to a concentration of 5 nM of the fatty acid, for 2 hrs (37 °C, 5% CO2). Cells were washed twice to remove unincorporated [^3H]-AA and resuspended in PBS containing glucose (0.1%), fatty acid-free BSA (2 mg/mL) and CaCl2 (1 mM). […] The reaction was stopped on ice and cells were centrifuged at 1,200 rpm (10 min, 4 °C). The collected supernatants were combined with 2 mL of liquid scintillation counting solution (Rotiszint eco plus, Carl Roth, Karlsruhe, Germany) and assayed for radioactivity by scintillation counting (Micro Beta Trilux, Perkin Elmer, Waltham, MA).

For another series, the target named is T2, sEH in HepG2 cells (Homo sapiens, UniProt P34913).
T2 construct: sEH is constitutively expressed in the human liver cancer cell line HepG2; endogenous in cells; host or cells: HepG2
T2 sequence (P34913 1-555): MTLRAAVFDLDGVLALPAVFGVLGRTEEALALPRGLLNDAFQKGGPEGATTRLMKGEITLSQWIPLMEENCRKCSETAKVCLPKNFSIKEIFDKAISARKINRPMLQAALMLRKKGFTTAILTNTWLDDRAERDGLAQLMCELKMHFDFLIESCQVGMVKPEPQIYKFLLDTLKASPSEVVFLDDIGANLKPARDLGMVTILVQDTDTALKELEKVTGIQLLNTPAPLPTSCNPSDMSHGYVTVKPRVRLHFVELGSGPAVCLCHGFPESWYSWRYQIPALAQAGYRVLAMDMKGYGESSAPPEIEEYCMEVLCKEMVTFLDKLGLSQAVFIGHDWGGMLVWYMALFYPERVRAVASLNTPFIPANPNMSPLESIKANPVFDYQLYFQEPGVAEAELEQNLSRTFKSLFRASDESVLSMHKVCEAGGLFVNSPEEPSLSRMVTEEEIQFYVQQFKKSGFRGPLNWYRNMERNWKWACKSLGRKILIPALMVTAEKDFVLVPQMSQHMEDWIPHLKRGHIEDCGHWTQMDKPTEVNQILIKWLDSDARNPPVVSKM
The series is described as follows: 14,15-DiHETrE formation in HepG2 cells (cell-based sEH assay). On the procedure:
To assay the activity of sEH in a cell-based model, HepG2 cells were harvested by trypsinization, pelleted (1,200 rpm, 5 min, 4 °C) and resuspended in PGC buffer to a final concentration of 1.5 × 10^6 cells/mL. […] Briefly, samples were acidified with four volumes of MilliQ water pH 3.5 containing PBS-HCl and subjected to Waters Sep-Pak® Vac 6cc columns (Waters, Milford, MA, USA), washed once with MilliQ and hexane, and eluted with methylformiate. The nitrogen-dried samples were dissolved in 50% methanol, and 14,15-DiHETrE formation was measured by UPLC-MS/MS using an Acquity™ UPLC system (Waters, Milford, MA, USA) and a QTRAP 5500 Mass Spectrometer (ABSciex, Darmstadt, Germany) equipped with a Turbo V™ Source and electrospray ionization (ESI). […] Ion spray voltage was set to 4000 V, the heater temperature to 500 °C, the declustering potential to 50–80 eV, the entrance potential to 10 eV, the collision cell exit potential to 10–13 eV, collision energies of 10 eV, the spray gas pressure to 40 psi, medium collision gas and the curtain gas pressure to 35 psi.

The subject of the next series is recombinant LTA4-H. Also on record: method as in PMID 11805219. The conditions noted are these: read-out: IC50 against recombinant LTA4-H; cited from earlier work.
The test system of the next series is monocytes. The series is described as follows: Acute cytotoxicity, MTT assay in monocytes. Conditions: 24 or 48 hrs; diflapolin 10 µM, staurosporine 3 µM. The class given is cell-based, human. On the procedure: Acute cytotoxicity of the compounds was determined using freshly isolated monocytes. Cells (0.2 × 10^6) per sample were seeded in 100 µL buffer on 96-well plates and treated with the test compounds and appropriate controls for 24 or 48 hrs (37 °C, 5% CO2). After addition of MTT (5 mg/mL) for 2 h (37 °C, 5% CO2), cells were lysed by SDS treatment (10%, pH 4.5) for 16–20 hrs and formazan formation was determined by measurement of absorbance at 570 nm.
For orientation: Formazan colour is commonly taken as a measure of viable cells.

Series [2] concerns 5-LOX activity in monocytes, neutrophils. Nature of the series: cells. Conditions: Homo sapiens, read-out: IC50 5-LOX activity in cell-based assays.
Description: In order to examine 5-LOX product formation in intact human neutrophils and monocytes, freshly isolated cells were resuspended in PBS buffer containing 0.1% glucose and 1 mM CaCl2 (PGC buffer) to a final cell density of 5 × 10^6 or 2 × 10^6, respectively. […] 5-LOX product formation was stopped by addition of one volume of ice-cold methanol, samples were subjected to solid phase extraction after addition of 200 ng PGB1 as internal standard and 5-LOX products were analyzed by RP-HPLC as described above.
For another series, the target named is T3, 5-LOX/FLAP complex (Homo sapiens, UniProt P20292).
T3 construct: endogenous in cells; host or cells: freshly isolated human monocytes (immunofluorescence also in neutrophils)
T3 sequence (P20292 1-161): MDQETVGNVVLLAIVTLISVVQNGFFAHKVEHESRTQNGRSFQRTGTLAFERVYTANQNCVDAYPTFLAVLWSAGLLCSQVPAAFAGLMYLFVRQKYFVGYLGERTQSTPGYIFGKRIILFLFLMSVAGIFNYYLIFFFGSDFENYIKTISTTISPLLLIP
Nature of the series: Proximity ligation assay of 5-LOX/FLAP complex assembly in monocytes. The class given is cell-based. Conditions: diflapolin 1 µM, MK886 0.3 µM, zileuton 3 µM. On the procedure:
In situ protein interaction of 5-LOX and FLAP was analyzed by proximity ligation assay as described before[37] and referring to the manufacturer’s protocol. In brief, freshly isolated monocytes were treated as described for IF above. Overnight incubations with primary antibodies were then treated for 1 h (37 °C) with oligonucleotide-labeled specific secondary antibodies (PLA probes anti-mouse MINUS and anti-rabbit PLUS). Formation of circled DNA sequences was induced by addition of ligase and oligonucleotide mixture (30 min at 37 °C). Rolling-circle-amplification of newly generated DNA template was performed (90 min, 37 °C) including hybridization of fluorescently-labeled oligonucleotides within the formed DNA strands, resulting in visualization of protein-protein interactions recognized as magenta-stained dots. Nuclear DNA staining with DAPI and image acquisition was performed as described above. Overview images were obtained using a Plan Neofluar 40/1.30 Oil (DIC III) objective (Carl Zeiss).

Series [3] has as its target T4, co-localization of 5-LOX with FLAP (Homo sapiens, UniProt P20292).
T4 construct: endogenous in cells; host or cells: freshly isolated human monocytes (immunofluorescence also in neutrophils)
T4 sequence (P20292 1-161): T3 sequence (P20292 1-161)
Nature of the series: Immunofluorescence microscopy of 5-LOX subcellular redistribution / co-localization with FLAP. The class given is cell-based. Conditions: human neutrophils or monocytes; diflapolin 1 µM, MK886 0.3 µM, zileuton 3 µM. On the procedure:
The incubations were stopped by paraformaldehyde fixation (4%, 20 min, RT) and cells were permeabilized using 100% ice-cold acetone (5 min, 4 °C). Blocking with non-immune goat serum (30 min, RT) was performed prior to overnight incubation (4 °C) with primary monoclonal-mouse-anti-5-LOX antibody (1:100 dilution, a generous gift from Dr. D. Steinhilber, Goethe University Frankfurt, Germany) and polyclonal-rabbit-anti-FLAP antibody (5 µg/mL, Abcam, Cambridge, UK). […] Cells were visualized by a Zeiss Axiovert 200 M microscope, and a Plan Neofluar × 100/1.30 Oil (DIC III) objective (Carl Zeiss, Jena, Germany) and image acquisition was performed using an AxioCam MR camera (Carl Zeiss).

The term IC50 denotes the concentration that inhibits the measured activity by half.

For `O=C(O)CCCCCCCCCCCNC(=O)NC12CC3CC(CC(C3)C1)C2` [AUDA], the “effect on LTA4-H activity (LTB4 formation)” value (“effect on LTA4-H activity” below) on human recombinant LTA4-H is “showed the same pattern as diflapolin”.

Take `CC(C)CN(Cc1ccccc1-c1ccccc1)[C@@H]1C[C@@H](CNC(=O)/C=C/c2ccc(/C=C3\SC(=O)NC3=O)cc2)N(C(=O)c2ccccc2C(=O)c2ccc(F)cc2F)C1` [RSC-3388]: the “release of AA upon A23187-stimulation” value in series [1] is listed as “suppressed AA liberation”.

Take `CN(CCCOc1ccc(Cc2ccccc2)cc1)CCC(=O)O.Cl` [SC57461A, 3-[methyl[3-[4-(phenylmethyl)phenoxy]propyl]amino]propanoic acid HCl]: the “effect on sEH in the cell-based sEH assay” value at sEH in HepG2 cells is “no impact”. Also, the “effect on LTA4-H activity” value at human recombinant LTA4-H is “blocked LTB4 biosynthesis”. Moreover, in the series on recombinant LTA4-H, the IC50 was 100 nM.

Consider `CN[C@@H]1C[C@H]2O[C@@](C)([C@@H]1OC)n1c3ccccc3c3c4c(c5c6ccccc6n2c5c31)C(=O)NC4` [staurosporine], for which, in the series on monocytes, the “viability of monocytes, MTT assay” value is given as “strongly impaired cell viability”.

As for `CC(c1cc2ccccc2s1)N(O)C(N)=O` (stereo not shown) [zileuton], at human recombinant LTA4-H, the “effect on LTA4-H activity” value is listed as “reduced the formation of all LTB4 isomers”. The half-inhibitory concentration (IC50) in series [2] amounted to 1500 nM. Moreover, on 5-LOX/FLAP complex, the “5-LOX/FLAP complex assembly (PLA)” value is listed as “failed”. In series [3], the “co-localization of 5-LOX with FLAP” value is “neither diflapolin nor the FLAP inhibitor MK886 or the 5-LOX inhibitor zileuton prevented co-localization”.
